Measurements published in publication PMC10824666 (Nature Cancer, 2023).
Where two headings read alike, the source gives them in different places.

What was measured:
Assay in all cases: biochemical
Set-up in all cases: Eurofins DiscoverX kinase panel, competitive binding assay at 1 uM, percent of DMSO control
[1] = target: FGFR1 (Homo sapiens, UniProt P11362); conditions: competitive binding, percent of DMSO control
In short: (§1)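 Single-point profiling at 1 µM compound in a competition-binding format against 96 kinases, read out as POC relative to control; n = 1.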

[2] = target: INSR (Homo sapiens, UniProt P06213); conditions: competitive binding, percent of DMSO control
In short: as §1

[3] = target: T1, PI3K delta (Homo sapiens, UniProt O00329); conditions: competitive binding, percent of DMSO control
T1 construct: gene PIK3CD
T1 sequence (O00329 1-1044): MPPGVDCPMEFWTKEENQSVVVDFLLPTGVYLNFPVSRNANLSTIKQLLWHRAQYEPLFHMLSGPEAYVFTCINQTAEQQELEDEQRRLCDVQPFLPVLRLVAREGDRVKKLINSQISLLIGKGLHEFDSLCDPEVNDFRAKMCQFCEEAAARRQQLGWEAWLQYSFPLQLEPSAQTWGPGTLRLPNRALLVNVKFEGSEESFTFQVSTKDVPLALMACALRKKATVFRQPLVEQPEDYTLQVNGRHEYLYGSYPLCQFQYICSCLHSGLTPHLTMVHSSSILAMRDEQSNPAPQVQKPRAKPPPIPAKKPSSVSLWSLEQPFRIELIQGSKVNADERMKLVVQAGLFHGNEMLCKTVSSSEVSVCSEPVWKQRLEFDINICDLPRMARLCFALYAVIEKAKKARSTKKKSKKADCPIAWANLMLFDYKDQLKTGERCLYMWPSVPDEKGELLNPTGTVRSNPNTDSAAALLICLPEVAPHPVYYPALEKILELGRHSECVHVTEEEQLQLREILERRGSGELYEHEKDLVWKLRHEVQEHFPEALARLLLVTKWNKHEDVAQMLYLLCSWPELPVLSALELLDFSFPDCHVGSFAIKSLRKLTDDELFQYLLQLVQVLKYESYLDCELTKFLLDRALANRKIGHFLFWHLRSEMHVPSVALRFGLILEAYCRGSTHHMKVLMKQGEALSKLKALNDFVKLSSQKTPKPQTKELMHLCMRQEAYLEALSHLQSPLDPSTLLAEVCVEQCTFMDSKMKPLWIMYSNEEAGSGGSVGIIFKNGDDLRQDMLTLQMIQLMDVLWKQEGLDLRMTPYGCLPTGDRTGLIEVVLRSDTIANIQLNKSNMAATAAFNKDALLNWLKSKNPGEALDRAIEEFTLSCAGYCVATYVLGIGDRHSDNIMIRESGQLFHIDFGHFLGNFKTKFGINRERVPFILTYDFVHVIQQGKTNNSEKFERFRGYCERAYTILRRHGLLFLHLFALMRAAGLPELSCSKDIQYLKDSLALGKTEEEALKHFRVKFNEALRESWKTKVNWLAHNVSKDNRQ
In short: as §1

[4] = target: T2, PKA alpha (Homo sapiens, UniProt P17612); conditions: read-out: Kinome Profiling performed by Eurofins DiscoverX / AM-5308, 1.0 µM / POC; competitive binding, percent of DMSO control
T2 construct: gene PRKACA
In short: as §1

[5] = target: T3, PKR (Homo sapiens, UniProt P19525); conditions: read-out: Kinome Profiling performed by Eurofins DiscoverX / AM-5308, 1.0 µM / POC; competitive binding, percent of DMSO control
T3 construct: gene EIF2AK2
In short: as §1

[6] = read-out: Kinome Profiling performed by Eurofins DiscoverX / AM-1882, 1.0 µM / POC
[7] = read-out: Kinome Profiling performed by Eurofins DiscoverX / AM-0277, 1.0 µM / POC
[8] = read-out: Kinome Profiling performed by Eurofins DiscoverX / AM-5308, 1.0 µM / POC

FGFR1, sequence (P11362 whole entry): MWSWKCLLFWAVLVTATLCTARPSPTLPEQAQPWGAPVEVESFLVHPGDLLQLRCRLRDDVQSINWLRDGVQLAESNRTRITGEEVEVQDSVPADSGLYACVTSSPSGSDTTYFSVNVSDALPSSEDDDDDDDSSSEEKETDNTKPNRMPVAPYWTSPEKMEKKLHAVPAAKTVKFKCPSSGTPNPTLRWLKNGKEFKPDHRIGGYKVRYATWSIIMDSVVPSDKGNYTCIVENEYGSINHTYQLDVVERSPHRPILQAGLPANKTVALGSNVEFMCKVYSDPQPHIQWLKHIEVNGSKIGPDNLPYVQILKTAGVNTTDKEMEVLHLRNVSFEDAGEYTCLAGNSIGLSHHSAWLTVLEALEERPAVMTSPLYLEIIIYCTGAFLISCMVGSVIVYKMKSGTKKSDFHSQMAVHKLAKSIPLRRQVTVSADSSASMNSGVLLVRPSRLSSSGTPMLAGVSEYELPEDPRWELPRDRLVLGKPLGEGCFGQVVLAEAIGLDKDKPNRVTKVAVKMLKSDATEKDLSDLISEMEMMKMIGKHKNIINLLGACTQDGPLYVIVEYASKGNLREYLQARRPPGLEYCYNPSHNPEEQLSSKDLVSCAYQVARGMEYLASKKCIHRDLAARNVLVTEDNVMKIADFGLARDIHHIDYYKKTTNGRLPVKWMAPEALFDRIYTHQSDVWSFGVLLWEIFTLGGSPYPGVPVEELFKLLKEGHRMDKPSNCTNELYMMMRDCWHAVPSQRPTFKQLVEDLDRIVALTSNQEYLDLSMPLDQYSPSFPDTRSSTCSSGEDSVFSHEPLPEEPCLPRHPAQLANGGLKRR
INSR, sequence (P06213 whole entry): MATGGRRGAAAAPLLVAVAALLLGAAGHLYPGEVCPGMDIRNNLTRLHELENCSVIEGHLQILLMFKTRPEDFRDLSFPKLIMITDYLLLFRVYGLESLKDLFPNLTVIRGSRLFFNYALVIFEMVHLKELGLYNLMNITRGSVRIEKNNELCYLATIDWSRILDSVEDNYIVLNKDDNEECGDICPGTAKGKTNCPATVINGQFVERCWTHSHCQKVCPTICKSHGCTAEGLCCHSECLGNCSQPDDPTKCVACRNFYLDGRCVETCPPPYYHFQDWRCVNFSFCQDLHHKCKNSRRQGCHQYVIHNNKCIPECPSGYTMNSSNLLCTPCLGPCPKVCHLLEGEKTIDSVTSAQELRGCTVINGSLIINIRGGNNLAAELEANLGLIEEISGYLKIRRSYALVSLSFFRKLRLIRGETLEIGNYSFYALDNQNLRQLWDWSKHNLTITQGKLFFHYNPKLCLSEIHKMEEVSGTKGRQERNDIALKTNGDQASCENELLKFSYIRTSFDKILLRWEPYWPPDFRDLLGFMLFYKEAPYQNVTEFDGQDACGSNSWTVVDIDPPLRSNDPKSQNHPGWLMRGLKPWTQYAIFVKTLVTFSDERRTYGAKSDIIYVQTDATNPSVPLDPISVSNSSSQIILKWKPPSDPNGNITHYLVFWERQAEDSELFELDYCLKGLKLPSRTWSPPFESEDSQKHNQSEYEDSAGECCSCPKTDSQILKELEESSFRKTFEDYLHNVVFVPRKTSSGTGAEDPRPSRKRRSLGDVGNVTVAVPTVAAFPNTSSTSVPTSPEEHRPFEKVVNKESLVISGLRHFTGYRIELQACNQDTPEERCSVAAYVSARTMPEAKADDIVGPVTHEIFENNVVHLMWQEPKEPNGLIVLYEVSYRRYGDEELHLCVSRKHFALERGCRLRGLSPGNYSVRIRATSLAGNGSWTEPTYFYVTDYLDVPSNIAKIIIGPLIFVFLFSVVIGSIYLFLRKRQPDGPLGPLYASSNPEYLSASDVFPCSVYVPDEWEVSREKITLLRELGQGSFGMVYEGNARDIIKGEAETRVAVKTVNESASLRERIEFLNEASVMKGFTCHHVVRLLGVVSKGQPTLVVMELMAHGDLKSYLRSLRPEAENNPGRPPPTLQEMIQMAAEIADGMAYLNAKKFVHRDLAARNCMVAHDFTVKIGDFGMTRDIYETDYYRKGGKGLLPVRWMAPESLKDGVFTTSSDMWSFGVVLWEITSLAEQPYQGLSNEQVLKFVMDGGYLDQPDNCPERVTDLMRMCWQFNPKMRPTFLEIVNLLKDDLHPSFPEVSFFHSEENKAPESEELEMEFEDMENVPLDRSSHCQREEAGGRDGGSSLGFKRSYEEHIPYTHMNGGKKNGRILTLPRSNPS
T3 sequence (P19525 whole entry): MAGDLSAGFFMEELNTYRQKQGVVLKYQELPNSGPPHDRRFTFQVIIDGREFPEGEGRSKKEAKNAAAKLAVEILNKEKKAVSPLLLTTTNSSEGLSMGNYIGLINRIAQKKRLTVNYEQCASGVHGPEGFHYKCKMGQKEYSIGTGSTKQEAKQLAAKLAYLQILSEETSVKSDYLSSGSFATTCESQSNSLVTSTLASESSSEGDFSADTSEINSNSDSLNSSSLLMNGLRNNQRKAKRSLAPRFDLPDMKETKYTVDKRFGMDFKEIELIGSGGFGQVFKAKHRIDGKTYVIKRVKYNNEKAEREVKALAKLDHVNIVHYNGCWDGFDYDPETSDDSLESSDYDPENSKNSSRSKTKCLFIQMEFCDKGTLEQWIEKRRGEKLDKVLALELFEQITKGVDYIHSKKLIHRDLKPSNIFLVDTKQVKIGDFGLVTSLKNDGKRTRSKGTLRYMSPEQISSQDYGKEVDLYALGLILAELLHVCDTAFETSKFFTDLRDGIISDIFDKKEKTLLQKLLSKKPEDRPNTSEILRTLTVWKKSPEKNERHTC

CC(C)(C)NS(=O)(=O)c1cccc(NC(=O)c2ccc(S(=O)(=O)NC(C)(C)C)cc2N2CCC3(CC2)CC3)c1 [AM-1882]
remaining activity at 1 µM [1, 6]: 98%
remaining activity at 1 µM [2, 6]: 100%
remaining activity at 1 µM [3, 6]: 96.5%

CC(C)(CO)Nc1ccc(C(=O)Nc2cccc(S(=O)(=O)C3CCCC3)c2)c(N2CCC3(CC2)CC3)n1 [AM-0277]
remaining activity at 1 µM [1, 7]: 94%
remaining activity at 1 µM [2, 7]: 100%
remaining activity at 1 µM [3, 7]: 100%

C[C@@H]1CN(c2cccc(NC(=O)c3ccc(NS(=O)(=O)CCO)cc3N3CCC4(CC3)CC4)n2)CCO1 [AM-5308]
remaining activity at 1 µM [1, 8]: 94.5%
remaining activity at 1 µM [2, 8]: 100%
remaining activity at 1 µM [3, 8]: 68%
remaining activity at 1 µM [4]: 100%
remaining activity at 1 µM [5]: 90%
